Experimental data taken from patent US9023789B2, “Amylin analogs and pharmaceutical compositions thereof” (Novo Nordisk A/S, priority 2012, dated 2015).
Numbered stars: 1 amine (or outer) side, 2 acyl side, 3 side chain; on linkers, the order of the positions; unused ones are H or OH. Bridge positions count the residues as written; N and C are the ends. Side chains are listed from the residue outwards. Peptide text beside a SMILES is read from it. * marks the point of attachment. C20 diacid = O=C(O)CCCCCCCCCCCCCCCCCCC(=O)*; γGlu = O=C(O)[C@H](CCC(=O)[*:2])N[*:1]

How the values were obtained:
[1] = target: T1, human amylin receptor (membranes from Amylin 3(a)/CRE-luc cells) (Homo sapiens, UniProt O60896+P30988); assay: ASSAY (V) binding to the human amylin receptor (SPA, 125I-rat amylin);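 also: competition binding of cell membranes (35 ng/µL) mixed with SPA beads in 384-well plates at 40 µL total volume, read by scintillation counting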
T1 construct: expressed in transfected cells
T1 sequence (P30988 25-474): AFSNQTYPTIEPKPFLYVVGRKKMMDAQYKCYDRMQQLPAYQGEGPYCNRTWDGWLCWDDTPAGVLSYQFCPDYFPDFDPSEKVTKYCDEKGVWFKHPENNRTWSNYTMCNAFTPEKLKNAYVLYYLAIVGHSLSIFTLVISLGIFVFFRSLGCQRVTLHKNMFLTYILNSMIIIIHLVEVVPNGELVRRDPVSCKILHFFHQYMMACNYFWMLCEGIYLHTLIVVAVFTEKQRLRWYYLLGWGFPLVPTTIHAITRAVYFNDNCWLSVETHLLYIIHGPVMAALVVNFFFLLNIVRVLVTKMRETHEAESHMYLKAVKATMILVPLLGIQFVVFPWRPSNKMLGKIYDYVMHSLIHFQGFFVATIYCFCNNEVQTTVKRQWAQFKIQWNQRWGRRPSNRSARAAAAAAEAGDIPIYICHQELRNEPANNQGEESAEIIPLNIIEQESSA
T1 sequence (O60896 24-148 partner): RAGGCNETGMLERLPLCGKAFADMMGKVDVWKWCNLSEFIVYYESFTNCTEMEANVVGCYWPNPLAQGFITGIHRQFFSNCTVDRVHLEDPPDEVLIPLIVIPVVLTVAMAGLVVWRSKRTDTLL

[2] = test system: Male Sprague-Dawley rats; assay: ASSAY (XI) single subcutaneous administration, food intake monitored for 48 hours in rats; type: in vivo, rat; details: for Food intake red (%) 0-24 h / Food intake red (%) 24-48 h: single s.c., compared to vehicle; for food intake monitored over 48 hours: single subcutaneous administration, versus vehicle
Outline: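 Male Sprague-Dawley rats from Taconic Europe, weighing about 250 g on the test day, were singly housed in an online food intake monitoring system (Ellegaard MBRose, Denmark). Before the study they were acclimatized to a reversed light cycle, with lights on from 10 PM to 10 AM. Each rat then received one subcutaneous dose of the analogue, and data are reported as mean±SEM.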

[3] = target: T2, human amylin 3(a) receptor (human calcitonin receptor + RAMP-3) in BHK570 cells (Homo sapiens, UniProt O60896+P30988); assay: ASSAY (II)a functional assay, human amylin receptor (CRE luciferase); type: cell-based
T2 construct: expressed in transfected cells
Outline: (§1)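 Read-out: CRE-driven luciferase luminescence, single photon counting, after 30 min at room temperature with LucLite. BHK cells expressed calcitonin receptor alone or with RAMP-3 (amylin 3(a)). Cells were stimulated 3 h at 37° C in DMEM, 10% FBS, 10 mM Hepes, pH 7.4.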

[4] = ASSAY (IX) pK, determination of T½ in mini-pig; type: in vivo; details: male, Göttingen, minipig, plasma, iv, 2 nmol/kg
[5] = test system: Male Wistar rats; assay: ASSAY (XII) effect from single subcutaneous administration on plasma calcium in rats; type: in vivo, rat; details: for Plasma calcium red (%) 0-12 h (maximal): single s.c., compared to vehicle; for suppression of plasma calcium level relative to vehicle: monitored over 24 hours
Outline: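 Male Wistar rats (~250 g), groups of five, received a single subcutaneous dose at time 0. Blood drawn at −15 min, 1, 2, 4, 7, 12 and 24 h; total calcium measured in heparin plasma, reported as mean±SEM.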

[6] = ASSAY (X) pK, determination of T½ in rat; type: in vivo; details: male, Sprague Dawley, plasma, iv, 20 nmol/kg
[7] = target: T3, human calcitonin receptor (Homo sapiens, UniProt P30988); assay: ASSAY (VII) binding to the human calcitonin receptor (SPA, 125I-Calcitonin); details: read-out: hCTR bind IC50;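 also: cell membranes (35 ng/µL) combined with SPA beads in 40 µL of pH 7.4 Hepes buffer, 384-well format, signal counted on a TopCounter instrument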
T3 construct: expressed in transfected cells
T3 sequence (P30988 25-474): T1 sequence (P30988 25-474)

[8] = target: T4, human calcitonin (a) receptor in BHK570 cells (Homo sapiens, UniProt P30988); assay: ASSAY (II)a functional assay, human calcitonin receptor (CRE luciferase); type: cell-based; details: read-out: hCTR funct. EC50
T4 construct: expressed in transfected cells
T4 sequence (P30988 25-474): T1 sequence (P30988 25-474)
Outline: as §1

[9] = Table 5, selectivity, hCTR bind IC50 / hAmylin-R bind IC50
[10] = Table 5a, selectivity, hCTR bind IC50 / hAmylin-R bind IC50
[11] = Table 5b, selectivity, hCTR bind IC50 / hAmylin-R bind IC50
[12] = Table 5c, selectivity, hCTR bind IC50 / hAmylin-R bind IC50
[13] = Table 7, human binding selectivity, included for comparison
[14] = Table 7a (preferred compounds), human binding selectivity, included for comparison
[15] = ratio of human calcitonin receptor binding IC50 to human amylin receptor binding IC50
[16] = hCTR funct. EC50 divided by hAmylin-R funct. EC50
[17] = hCTR funct. EC50 over hAmylin-R funct. EC50
[18] = human functional selectivity: hCTR funct. EC50 / hAmylin-R funct. EC50
[19] = single subcutaneous administration, increasing doses (all doses tested)

CC[C@H](C)[C@H](NC(=O)[C@H](C)NC(=O)CNC(=O)[C@H](Cc1ccccc1)NC(=O)[C@H](CC(N)=O)NC(=O)[C@@H]1CCCN1C(=O)[C@H](CO)NC(=O)[C@H](CO)NC(=O)[C@H](Cc1c[nH]cn1)NC(=O)[C@H](CCCNC(=N)N)NC(=O)[C@H](CC(C)C)NC(=O)[C@H](Cc1ccccc1)NC(=O)[C@H](CC(=O)O)NC(=O)[C@H](C)NC(=O)[C@H](CC(C)C)NC(=O)[C@H](CCCNC(=N)N)NC(=O)[C@H](CCC(N)=O)NC(=O)[C@@H](NC(=O)[C@H](C)NC(=O)[C@@H]1CSSC[C@H](NC(=O)[C@@H](N)CCCCNC(=O)CC[C@H](NC(=O)CC[C@H](NC(=O)CCCCCCCCCCCCCCCCCCC(=O)O)C(=O)O)C(=O)O)C(=O)N[C@@H](CC(N)=O)C(=O)N[C@@H]([C@@H](C)O)C(=O)N[C@@H](C)C(=O)N[C@@H]([C@@H](C)O)C(=O)N1)[C@@H](C)O)C(=O)N1CCC[C@H]1C(=O)N[C@@H](CO)C(=O)N[C@@H](CO)C(=O)N[C@H](C(=O)N[C@@H](CC(N)=O)C(=O)N[C@H](C(=O)NCC(=O)N[C@@H](CO)C(=O)N[C@@H](CCCNC(=N)N)C(=O)N[C@H](C(=O)N[C@@H](Cc1ccc(O)cc1)C(N)=O)[C@@H](C)O)C(C)C)[C@@H](C)O [Example 52, N-ε-1-{(S)-4-carboxy-4-[(S)-4-carboxy-4-(19-carboxynonadecanoylamino)butyrylamino]butyryl}-[Asp14,Arg17,Pro21,Pro27,Arg35]-human amylin]
Ratio hCT/hAmylin binding [1, 9]: 81.6
Ratio hCT/hAmylin binding [1, 10]: 81.6
Ratio hCT/hAmylin binding [1, 11]: 81.6
Ratio hCT/hAmylin binding [1, 12]: 81.6
Ratio hCT/hAmylin binding [1, 13]: 81.6
Ratio hCT/hAmylin binding [1, 14]: 81.6
Ratio hCT/hAmylin binding [1, 15]: 81.6
Food intake red (%) 0-24 h ([2]; 3 nmol/kg): 25%
Food intake red (%) 24-48 h ([2]; 3 nmol/kg): 15%
Food intake red (%) 0-24 h ([2]; 30 nmol/kg): 63%
Food intake red (%) 24-48 h ([2]; 30 nmol/kg): 50%
food intake monitored over 48 hours ([2]; 30 nmol/kg): reduces food intake
Ratio hCT/hAmylin funct. [3, 16]: 41.4
Ratio hCT/hAmylin funct. [3, 17]: 41.4
Ratio hCT/hAmylin funct. [3, 18]: 41.4
half-life [4]: 4.15 days
Plasma calcium red (%) 0-12 h (maximal) ([5]; 30 nmol/kg): 12%
suppression of plasma calcium level relative to vehicle [5, 19]: None of the doses trigger a notable suppression of the calcium level
half-life [6]: 1260 min

CC[C@H](C)[C@H](NC(=O)[C@H](C)NC(=O)CNC(=O)[C@H](Cc1ccccc1)NC(=O)[C@H](CC(N)=O)NC(=O)[C@@H]1CCCN1C(=O)[C@H](CO)NC(=O)[C@H](CO)NC(=O)[C@H](Cc1c[nH]cn1)NC(=O)[C@H](CCCNC(=N)N)NC(=O)[C@H](CC(C)C)NC(=O)[C@H](Cc1ccccc1)NC(=O)[C@H](CC(N)=O)NC(=O)[C@H](C)NC(=O)[C@H](CC(C)C)NC(=O)[C@H](CCCNC(=N)N)NC(=O)[C@H](CCC(N)=O)NC(=O)[C@@H](NC(=O)[C@H](C)NC(=O)[C@@H]1CSSC[C@H](NC(=O)[C@@H](N)CCCCNC(=O)CC[C@H](NC(=O)CC[C@H](NC(=O)CCCCCCCCCCCCCCCCCCC(=O)O)C(=O)O)C(=O)O)C(=O)N[C@@H](CC(N)=O)C(=O)N[C@@H]([C@@H](C)O)C(=O)N[C@@H](C)C(=O)N[C@@H]([C@@H](C)O)C(=O)N1)[C@@H](C)O)C(=O)N1CCC[C@H]1C(=O)N[C@@H](CO)C(=O)N[C@@H](CO)C(=O)N[C@H](C(=O)N[C@@H](CC(N)=O)C(=O)N[C@H](C(=O)NCC(=O)N[C@@H](Cc1c[nH]cn1)C(=O)N[C@@H](CC(N)=O)C(=O)N[C@H](C(=O)N[C@@H](Cc1ccc(O)cc1)C(N)=O)[C@@H](C)O)C(C)C)[C@@H](C)O [Example 86] (H-K([γGlu-γGlu-C20 diacid])CNTATCATQRLANFLRHSSPNFGAIPSSTNVGHNTY-NH2; disulfide 2-7)
IC50 ([1]; Table 4, read-out: hAmylin-R bind IC50): 0.833 nM
Ratio hCT/hAmylin binding [1, 9]: 159.3
Ratio hCT/hAmylin binding [1, 10]: 159.3
Ratio hCT/hAmylin binding [1, 11]: 159.3
Ratio hCT/hAmylin binding [1, 12]: 159.3
Ratio hCT/hAmylin binding [1, 13]: 159.3
Ratio hCT/hAmylin binding [1, 14]: 159.3
Ratio hCT/hAmylin binding [1, 15]: 159.3
Food intake red (%) 0-24 h ([2]; 30 nmol/kg): 48%
Food intake red (%) 24-48 h ([2]; 30 nmol/kg): 26%
food intake monitored over 48 hours ([2]; 30 nmol/kg): reduces food intake
IC50 [7]: 133 nM
EC50 [8]: 19.2 nM
Ratio hCT/hAmylin funct. [3, 16]: 64.4
Ratio hCT/hAmylin funct. [3, 17]: 64.4
EC50 ([3]; human amylin receptor functional potency, assay (II), read-out: hAmylin-R funct. EC50): 0.298 nM
Ratio hCT/hAmylin funct. [3, 18]: 64.4
half-life [4]: 4.33 days
Plasma calcium red (%) 0-12 h (maximal) ([5]; 30 nmol/kg): 0%
suppression of plasma calcium level relative to vehicle [5, 19]: None of the doses trigger a notable suppression of the calcium level
half-life [6]: 1200 min

CC[C@H](C)[C@H](NC(=O)[C@H](C)NC(=O)CNC(=O)[C@H](Cc1ccccc1)NC(=O)[C@H](CC(N)=O)NC(=O)[C@@H]1CCCN1C(=O)[C@H](CO)NC(=O)[C@H](CO)NC(=O)[C@H](Cc1c[nH]cn1)NC(=O)[C@H](CCCNC(=N)N)NC(=O)[C@H](CC(C)C)NC(=O)[C@H](Cc1ccccc1)NC(=O)[C@H](CCC(=O)O)NC(=O)[C@H](C)NC(=O)[C@H](CC(C)C)NC(=O)[C@H](CCCNC(=N)N)NC(=O)[C@H](CCC(N)=O)NC(=O)[C@@H](NC(=O)[C@H](C)NC(=O)[C@@H]1CSSC[C@H](NC(=O)[C@@H](N)CCCCNC(=O)CC[C@H](NC(=O)CCCCCCCCCCCCCCCCCCC(=O)O)C(=O)O)C(=O)N[C@@H](CC(N)=O)C(=O)N[C@@H]([C@@H](C)O)C(=O)N[C@@H](C)C(=O)N[C@@H]([C@@H](C)O)C(=O)N1)[C@@H](C)O)C(=O)N1CCC[C@H]1C(=O)N[C@@H](CO)C(=O)N[C@@H](CO)C(=O)N[C@H](C(=O)N[C@@H](CC(N)=O)C(=O)N[C@H](C(=O)NCC(=O)N1CCC[C@H]1C(=O)N[C@@H](CCC(=O)O)C(=O)N[C@H](C(=O)N[C@@H](Cc1ccc(O)cc1)C(N)=O)[C@@H](C)O)C(C)C)[C@@H](C)O [Example 109] (H-K([γGlu-C20 diacid])CNTATCATQRLAEFLRHSSPNFGAIPSSTNVGPETY-NH2; disulfide 2-7 (inferred); N-terminus assumed)
Ratio hCT/hAmylin binding [1, 9]: 13.3
Ratio hCT/hAmylin binding [1, 10]: 13.3
Ratio hCT/hAmylin binding [1, 11]: 13.3
Ratio hCT/hAmylin binding [1, 12]: 13.3
Ratio hCT/hAmylin binding [1, 13]: 13.3
Ratio hCT/hAmylin binding [1, 14]: 13.3
Ratio hCT/hAmylin binding [1, 15]: 13.3
Food intake red (%) 0-24 h ([2]; 3 nmol/kg): 57%
Food intake red (%) 24-48 h ([2]; 3 nmol/kg): 50%
Food intake red (%) 0-24 h ([2]; 30 nmol/kg): 89%
Food intake red (%) 24-48 h ([2]; 30 nmol/kg): 91%
food intake monitored over 48 hours ([2]; 30 nmol/kg): reduces food intake
Ratio hCT/hAmylin funct. [3, 16]: 5.2
Ratio hCT/hAmylin funct. [3, 17]: 5.2
Ratio hCT/hAmylin funct. [3, 18]: 5.2
half-life [4]: 3.96 days
Plasma calcium red (%) 0-12 h (maximal) ([5]; 3 nmol/kg): 7%
Plasma calcium red (%) 0-12 h (maximal) ([5]; 30 nmol/kg): 27%
suppression of plasma calcium level relative to vehicle ([5]; single subcutaneous 3 nmol/kg): does not trigger a notable suppression of the calcium level
suppression of plasma calcium level relative to vehicle ([5]; single subcutaneous 30 nmol/kg): induces a minor suppression of the calcium level
suppression of plasma calcium level relative to vehicle ([5]; single subcutaneous 100 nmol/kg): induces a more pronounced suppression of the calcium level
suppression of plasma calcium level relative to vehicle ([5]; single subcutaneous 300 nmol/kg): induces a more pronounced suppression of the calcium level
half-life [6]: 1020 min
